According to US20070173478A1, “Compositions for the enhanced treatment of depression” (WWK TRUST, priority 2003, published 2007):

Test system: chronic endogenous depression
Assay: Case #1: patient with chronic endogenous depression
Type: in vivo, human
Settings: person

SMILES | effect of previous treatment (previous treatment) | side effects of previous treatment (previous treatment) | antidepressant effect of fluoxetine alone (30 mg fluoxetine once daily, before the combination)
CN(C)CC/C=C1\c2ccccc2CSc2ccccc21 [prothiaden] | relatively ineffective | complained of side effects | 
CNCCC(Oc1ccc(C(F)(F)F)cc1)c1ccccc1 (stereo not drawn) [fluoxetine] |  |  | requiring increasing doses to sustain antidepressant effects
